Data reported in patent publication US4178442A, “Novel cinnamoyles piperazines and homopiperazines, the method of preparing them and their application in therapeutics” (Delalande S. A., priority 1977, dated 1979).
Structures can show the parent of a compound that is named as a salt. Where two headings read alike, the source gives them in different places.

How the values were obtained:
[1] = system: anaesthetized dog; test: Activity on the cerebral circulation, anaesthetized dog; type: in vivo; conditions: for change in vivo at 5 mg/kg / change in vivo at 2.5 mg/kg: Canis lupus familiaris, iv; for Increase of the extraction of cerebral oxygen: (A-V)/A
Procedure: The activity on the cerebral circulation was tested on an anaesthetized dog (sodium pentobarbital 30 mg/kg/i.v.). The vertebral artery flow was measured by means of an electromagnetic perivascular or ultrasonic Doppler effect probe. The intracerebral vascular resistance was estimated by the back pressure of the internal carotid artery. […] The increase in the extraction of cerebral oxygen was estimated by the following equation:(A-V)/A in which: A represents the volume of oxygen in the arterial blood (% volume) measured by hemoreflectometry (KIPP and ZONEN's apparatus) and quantity determination of the haemoglobin (DRABKIN's method). V represents the volume of oxygen in the cerebral venous blood (internal maxillary vein). […] It should be noted that the compounds tested were injected intravenously (rapid injection).

[2] = system: anaesthetized dog; test: Antiangorous activity on anaesthetized dog: consumption of oxygen in the left ventricule and cardiac effort (KATZ's index); type: in vivo; conditions: for inhibition in vivo at 9.1 mg/kg / inhibition in vivo at 2.5 mg/kg / inhibition in vivo at […]: Canis lupus familiaris, iv; for inhibition in vivo at […]: 0.15 mg/kg i.v. slow perfusion
Method in brief: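 Katz index taken as mean arterial pressure multiplied by ECG (D2) heart rate, and myocardial O2 use as coronary sinus flow via modified Morawitz cannula times coronary arteriovenous O2 difference. Animals: pentobarbital-anaesthetized dogs (30 mg/kg i.v.), test compounds infused slowly intravenously.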

[3] = in vivo; conditions: iv; for LD50: read-out: Toxicity: LD50
Description: *LD50 or percentage of mortality which is given between brackets

[4] = system: anaesthetized dog; test: Activity on the peripheral circulation, anaesthetized dog; type: in vivo; conditions: dog, 5 mg/kg i.v. slow perfusion; for change in vivo at 5 mg/kg: Canis lupus familiaris, iv
Procedure: The activity on the peripheral circulation was studied on an anaesthetized dog (sodium pentobarbital 30 mg/kg/i.v.). The femoral artery flow was measured by means of an electromagnetic or ultrasonic perivascular Doppler effect probe.

[5] = dog, 5 mg/kg i.v. rapid injection, read-out: Internal carotid artery back pressure
[6] = dog, 5 mg/kg i.v. rapid injection, read-out: Systemic average arterial pressure
[7] = dog, 5 mg/kg i.v. rapid injection, read-out: Vertebral artery flow
[8] = dog, 5 mg/kg i.v. rapid injection
[9] = 2.5 mg/kg i.v. slow perfusion, read-out: Diminution in consumption of O2
[10] = 2.5 mg/kg i.v. slow perfusion, read-out: Diminution in the cardiac effort (IK)
[11] = read-out: Average arterial pressure
[12] = dog, 2,5 mg/kg i.v. rapid injection, read-out: Internal carotid artery back pressure
[13] = dog, 2,5 mg/kg i.v. rapid injection, read-out: Systemic average arterial pressure
[14] = dog, 2,5 mg/kg i.v. rapid injection

COc1cc(/C=C/C(=O)N2CCCN(CC(O)COc3ccccc3)CC2)cc(OC)c1OC (stereo not shown) [760 388]
change in vivo at 5 mg/kg [1, 5]: -65% | change in vivo at 5 mg/kg [1, 6]: -44% | change in vivo at 5 mg/kg [1, 7]: 225% | Internal carotid artery back pressure: in time [1, 8]: 50 min | Systemic average arterial pressure: in time [1, 8]: 50 min | Vertebral artery flow: in time [1, 8]: 50 min

COc1cccc(OCC(O)CN2CCN(C(=O)/C=C/c3cc(OC)c(OC)c(OC)c3)CC2)c1 (stereo not shown) [760 390]
change in vivo at 5 mg/kg [1, 5]: -22% | change in vivo at 5 mg/kg [1, 6]: -13% | change in vivo at 5 mg/kg [1, 7]: 177% | Internal carotid artery back pressure: in time [1, 8]: 5 min | Systemic average arterial pressure: in time [1, 8]: < 10 min | Vertebral artery flow: in time [1, 8]: 30 min | Diminution in consumption of O2: in time ([2]; 9.1 mg/kg i.v. slow perfusion): 53 min | Diminution in the cardiac effort (IK): in time ([2]; 9.1 mg/kg i.v. slow perfusion): 45 min | inhibition in vivo at 9.1 mg/kg ([2]; 9.1 mg/kg i.v. slow perfusion, read-out: Diminution in consumption of O2): 64% | inhibition in vivo at 9.1 mg/kg ([2]; 9.1 mg/kg i.v. slow perfusion, read-out: Diminution in the cardiac effort (IK)): 60% | LD50 [3]: 227 mg/kg

COc1cc(/C=C/C(=O)N2CCN(CC(O)COc3cccc(OC)c3OC)CC2)cc(OC)c1OC (stereo not shown) [760 393]
change in vivo at 5 mg/kg [1, 5]: -62% | change in vivo at 5 mg/kg [1, 6]: -33% | change in vivo at 5 mg/kg [1, 7]: 150% | Systemic average arterial pressure: in time [1, 8]: 30 min | Vertebral artery flow: in time [1, 8]: < 2 min | Diminution in consumption of O2: in time ([2]; 2.5 mg/kg i.v. slow perfusion): 15 min | Diminution in the cardiac effort (IK): in time ([2]; 2.5 mg/kg i.v. slow perfusion): 15 min | inhibition in vivo at 2.5 mg/kg [2, 9]: 47% | inhibition in vivo at 2.5 mg/kg [2, 10]: 5% | LD50 [3]: 319 mg/kg

COc1cc(/C=C/C(=O)N2CCN(CC(O)COc3ccccc3C(C)=O)CC2)cc(OC)c1OC (stereo not shown) [760 455]
change in vivo at 5 mg/kg [1, 5]: -90% | change in vivo at 5 mg/kg [1, 6]: -39% | change in vivo at 5 mg/kg [1, 7]: 120% | Internal carotid artery back pressure: in time [1, 8]: 20 min | Systemic average arterial pressure: in time [1, 8]: 30 min | Vertebral artery flow: in time [1, 8]: 6 min | Diminution in consumption of O2: in time ([2]; 2.5 mg/kg i.v. slow perfusion): 15 min | Diminution in the cardiac effort (IK): in time ([2]; 2.5 mg/kg i.v. slow perfusion): 30 min | inhibition in vivo at 2.5 mg/kg [2, 9]: 45% | inhibition in vivo at 2.5 mg/kg [2, 10]: 24% | mortality ([3]; 255 mg/kg i.v., read-out: Toxicity (Mortality)): 50%

COc1cc(/C=C/C(=O)N2CCN(CC(O)COc3ccccc3C)CC2)cc(OC)c1OC (stereo not shown) [760 502]
change in vivo at 5 mg/kg [4, 11]: -22% | change in vivo at 5 mg/kg ([4]; read-out: Femoral artery flow): 190% | Average arterial pressure: in time [4]: 15 min | Femoral artery flow: in time [4]: 35 min

C=CCOc1ccccc1OCC(O)CN1CCN(C(=O)/C=C/c2cc(OC)c(OC)c(OC)c2)CC1 (stereo not shown) [760 503]
change in vivo at 5 mg/kg [4, 11]: -6% | change in vivo at 5 mg/kg ([4]; read-out: Femoral artery flow): 87% | Average arterial pressure: in time [4]: 15 min | Femoral artery flow: in time [4]: 15 min

C=CCc1ccccc1OCC(O)CN1CCN(C(=O)/C=C/c2cc(OC)c(OC)c(OC)c2)CC1 (stereo not shown) [760 518]
change in vivo at 5 mg/kg [1, 5]: -48% | change in vivo at 5 mg/kg [1, 6]: -15% | change in vivo at 5 mg/kg [1, 7]: 180% | Internal carotid artery back pressure: in time [1, 8]: 5 min | Systemic average arterial pressure: in time [1, 8]: 5 min | Vertebral artery flow: in time [1, 8]: 5 min

COc1cc(/C=C/C(=O)N2CCN(CC(O)COc3cccc(C(C)=O)c3)CC2)cc(OC)c1OC (stereo not shown) [770 458]
change in vivo at 2.5 mg/kg [1, 12]: -11% | change in vivo at 2.5 mg/kg [1, 13]: -10% | Internal carotid artery back pressure: in time [1, 14]: 15 min | Systemic average arterial pressure: in time [1, 14]: 15 min | Increase of the extraction of cerebral oxygen [1, 14]: +35% | Diminution in consumption of O2: in time ([2]; 2.5 mg/kg i.v. slow perfusion): 23 min | Diminution in the cardiac effort (IK): in time ([2]; 2.5 mg/kg i.v. slow perfusion): 15 min | inhibition in vivo at 2.5 mg/kg [2, 9]: 72% | inhibition in vivo at 2.5 mg/kg [2, 10]: 25% | LD50 [3]: 250 mg/kg

COc1cc(/C=C/C(=O)N2CCN(CC(O)CN(C)c3ccccc3)CC2)cc(OC)c1OC (stereo not shown) [770 495, 1-(3-N-methylanilino-2-hydroxy)propyl-4-(3,4,5-trimethoxycinnamoyl)piperazine, hydrated oxalate]
change in vivo at 2.5 mg/kg [1, 12]: -17% | change in vivo at 2.5 mg/kg [1, 13]: -20% | Internal carotid artery back pressure: in time [1, 14]: 60 min | Systemic average arterial pressure: in time [1, 14]: 20 min | Vertebral artery flow: in time [1, 14]: 60 min | Increase of the extraction of cerebral oxygen [1, 14]: +188% | Diminution in consumption of O2: in time ([2]; 2.5 mg/kg i.v. slow perfusion): 45 min | Diminution in the cardiac effort (IK): in time ([2]; 2.5 mg/kg i.v. slow perfusion): 30 min | inhibition in vivo at 2.5 mg/kg [2, 9]: 74% | inhibition in vivo at 2.5 mg/kg [2, 10]: 43% | LD50 [3]: 175 mg/kg

COc1cc(/C=C/C(=O)N2CCN(CC(O)COc3ccc(NC(=O)N(C)C)c4c3OCCO4)CC2)cc(OC)c1OC (stereo not shown) [771 233]
inhibition in vivo at […] ([2]; read-out: Diminution in consumption of O2): 29% | inhibition in vivo at […] ([2]; read-out: Diminution in the cardiac effort (IK)): 9% | LD50 [3]: 310 mg/kg
